For 8 compounds, GI50 and TGI results are on record in PubChem BioAssay (NCI).

Molecules are shown by their SMILES.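 Cultured in 96-well plates, cells were exposed to test compound for 48 hours across five concentrations. GI50 marks 50% less growth. TGI is the concentration that stops growth completely.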 A value given as a limit tells only on which side of the number the result lay.

Among the test systems are MDA-MB-435; HCC-2998 colon; HL-60(TB) leukemia; SF-268 CNS; EKVX NSCLC; HCT-15 colon; COLO 205 colon; OVCAR-8 ovarian; M14 melanoma; OVCAR-5 ovarian.
Holding throughout (experiment): DTP human tumour cell line panel, 48 h

Regarding `Clc1ccc(/C=C/c2ccc3ccccc3n2)cc1`, the GI50 in the assay with MDA-MB-435 is 0.226 µM; with HCC-2998 colon, 0.968 µM; in the assay on HL-60(TB) leukemia it was 0.268 µM; in the assay on SF-268 CNS, 0.641 µM; in the assay on EKVX NSCLC, 2.79 µM; in the assay with HCT-15 colon, 2.08 µM. Besides, the GI50 was 1.46 µM in the assay with COLO 205 colon, 1.06 µM in the assay with OVCAR-8 ovarian, 0.298 µM in the assay on M14 melanoma and 4.36 µM in the assay with OVCAR-5 ovarian. Further, the TGI in the assay on MDA-MB-435 is 0.531 µM; in the assay on HCC-2998 colon, 8.41 µM; in the assay on HL-60(TB) leukemia it was 0.828 µM; in the assay on SF-268 CNS, greater than 88.3 µM; in the assay with EKVX NSCLC it was greater than 100 µM; in the assay on HCT-15 colon it was greater than 100 µM. For the same compound, the TGI with COLO 205 colon is 6.73 µM; in the assay on OVCAR-8 ovarian, greater than 100 µM; in the assay on M14 melanoma, 1.01 µM; in the assay on OVCAR-5 ovarian, greater than 100 µM.

`CCCN(CCC)c1ccc(C=O)c(Cl)c1`: the GI50 was 25.2 µM with MDA-MB-435; 19.4 µM in the assay on HCC-2998 colon; 27.8 µM with HL-60(TB) leukemia; 33.9 µM in the assay on SF-268 CNS; 21.4 µM with EKVX NSCLC; 24 µM in the assay on HCT-15 colon. In addition, the GI50 is 4.2 µM in the assay with COLO 205 colon, 28.4 µM in the assay on OVCAR-8 ovarian, 26 µM with M14 melanoma and 0.432 µM in the assay with OVCAR-5 ovarian. For the same compound, the TGI in the assay on MDA-MB-435 is greater than 87.8 µM; in the assay with HCC-2998 colon it was greater than 100 µM; in the assay with HL-60(TB) leukemia, 76.1 µM; in the assay on SF-268 CNS, greater than 91.5 µM; with EKVX NSCLC, greater than 76.6 µM; with HCT-15 colon, greater than 100 µM. For the same compound, the total growth inhibition concentration (TGI) is 17 µM with COLO 205 colon, greater than 100 µM with OVCAR-8 ovarian, greater than 100 µM in the assay with M14 melanoma and 2.33 µM in the assay on OVCAR-5 ovarian.

Consider `COc1cc(F)ccc1-c1cc(Nc2cc(CS(C)(=N)=O)ccn2)ncc1F` (configuration not stated), for which the GI50 with MDA-MB-435 is 0.107 µM; in the assay with HCC-2998 colon it was 0.184 µM; in the assay with HL-60(TB) leukemia, 0.0284 µM; in the assay on SF-268 CNS it was 0.0689 µM; with EKVX NSCLC it was 0.153 µM; in the assay on HCT-15 colon, 0.0491 µM. The GI50 in the assay on COLO 205 colon is 0.0333 µM; in the assay on OVCAR-8 ovarian, 0.0914 µM; with M14 melanoma, 0.0649 µM; in the assay on OVCAR-5 ovarian it was 0.0488 µM. The total growth inhibition concentration (TGI) with MDA-MB-435 was greater than 100 µM; with HL-60(TB) leukemia it was 0.228 µM; in the assay with SF-268 CNS it was greater than 100 µM; with EKVX NSCLC, 8.63 µM; in the assay with HCT-15 colon, greater than 100 µM; with COLO 205 colon it was 0.17 µM. Also, the TGI with OVCAR-8 ovarian was greater than 100 µM; in the assay on M14 melanoma it was greater than 37.6 µM; with OVCAR-5 ovarian it was greater than 100 µM.

Consider `CC12CC(=O)Nc3ccccc3N1C(c1ccccc1)=NO2` (configuration not stated), for which the TGI with MDA-MB-435, in the assay on HCC-2998 colon, in the assay on HL-60(TB) leukemia, with SF-268 CNS, with EKVX NSCLC and in the assay with HCT-15 colon was greater than 100 µM each time. Also, the TGI in the assay on COLO 205 colon, with OVCAR-8 ovarian, in the assay on M14 melanoma and with OVCAR-5 ovarian was greater than 100 µM throughout.

Turning to `Cc1ccc(S(=O)(=O)c2nc(-c3ccccc3)oc2S(C)(=O)=O)cc1`, the GI50 in the assay on MDA-MB-435 is 2.11 µM; in the assay on HCC-2998 colon, 17.9 µM; in the assay on HL-60(TB) leukemia, 2 µM; in the assay with SF-268 CNS, 10.6 µM; with EKVX NSCLC it was 6.08 µM; in the assay with HCT-15 colon, 1.7 µM. In addition, the GI50 with COLO 205 colon is 1.7 µM; in the assay on OVCAR-8 ovarian, 1.96 µM; in the assay on M14 melanoma it was 1.74 µM; in the assay on OVCAR-5 ovarian, 2.12 µM. Besides, the TGI was found to be 4.58 µM with MDA-MB-435; 32.2 µM in the assay with HCC-2998 colon; 6.43 µM with HL-60(TB) leukemia; 24.4 µM in the assay with SF-268 CNS; 19.3 µM in the assay with EKVX NSCLC; 3.31 µM in the assay on HCT-15 colon. The TGI with COLO 205 colon was 3.21 µM; with OVCAR-8 ovarian it was 3.8 µM; in the assay on M14 melanoma it was 3.63 µM; with OVCAR-5 ovarian it was 5.28 µM.

Take `Nc1c(C(=O)c2cccc(C#CCN3CCCCC3)c2)cnn1-c1ccc(F)cc1`: the GI50 was 15.3 µM with MDA-MB-435; greater than 25 µM in the assay with HCC-2998 colon; 15.9 µM in the assay on HL-60(TB) leukemia; greater than 25 µM in the assay with SF-268 CNS; greater than 22.5 µM in the assay on HCT-15 colon; 24.9 µM in the assay with COLO 205 colon. Besides, the GI50 in the assay with OVCAR-8 ovarian, in the assay with M14 melanoma and with OVCAR-5 ovarian was greater than 25 µM each time. Moreover, the TGI in the assay with MDA-MB-435, in the assay with HCC-2998 colon, in the assay with HL-60(TB) leukemia, in the assay with SF-268 CNS, in the assay on HCT-15 colon and with COLO 205 colon was greater than 25 µM throughout. Further, the TGI in the assay on OVCAR-8 ovarian, in the assay on M14 melanoma and in the assay on OVCAR-5 ovarian was greater than 25 µM each time.

In the case of `COc1cccc(CNc2ncnc3c2ncn3C2OC(CO)C(O)C2O)c1O` (configuration not stated), the GI50 in the assay on MDA-MB-435 is 0.111 µM; with HCC-2998 colon, 0.391 µM; with HL-60(TB) leukemia, 0.0303 µM; with SF-268 CNS it was 0.257 µM; in the assay on EKVX NSCLC, 0.559 µM; in the assay with HCT-15 colon it was 0.138 µM. Moreover, the GI50 was 0.702 µM in the assay with COLO 205 colon, 0.0679 µM in the assay on OVCAR-8 ovarian, 0.248 µM in the assay with M14 melanoma and 0.417 µM in the assay on OVCAR-5 ovarian. The TGI with MDA-MB-435 was 2.78 µM; in the assay with HCC-2998 colon, greater than 38.2 µM; in the assay on HL-60(TB) leukemia, 0.224 µM; in the assay on SF-268 CNS, greater than 100 µM; in the assay on EKVX NSCLC, greater than 59.6 µM; with HCT-15 colon it was greater than 100 µM. Also, the total growth inhibition concentration (TGI) is 31.1 µM in the assay with COLO 205 colon, greater than 43 µM in the assay on OVCAR-8 ovarian, greater than 100 µM in the assay with M14 melanoma and greater than 100 µM in the assay on OVCAR-5 ovarian.

For `FC(F)(F)c1ccc(-c2nn3ncccc3c2-c2ccnc(Nc3ccc4c(c3)OCCO4)n2)cc1`, the GI50 is 10.7 µM with MDA-MB-435; 6.56 µM with HCC-2998 colon; 7.16 µM in the assay on HL-60(TB) leukemia; greater than 21.3 µM in the assay with SF-268 CNS; 4.02 µM with EKVX NSCLC; 8.18 µM in the assay on HCT-15 colon. The GI50 in the assay on COLO 205 colon is 16.6 µM; in the assay with OVCAR-8 ovarian, 13.2 µM; with M14 melanoma, 8.92 µM; with OVCAR-5 ovarian, 7.11 µM. For the same compound, the TGI is greater than 25 µM in the assay on MDA-MB-435; greater than 25 µM with HCC-2998 colon; greater than 21.8 µM in the assay on HL-60(TB) leukemia; greater than 25 µM with SF-268 CNS; greater than 25 µM in the assay with EKVX NSCLC; greater than 25 µM in the assay with HCT-15 colon. In addition, the TGI with COLO 205 colon is greater than 25 µM; in the assay on OVCAR-8 ovarian, greater than 25 µM; in the assay on M14 melanoma, greater than 25 µM; in the assay on OVCAR-5 ovarian, greater than 23.2 µM.
